According to patent publication US20250057832A1, “USE OF A CLASS OF 1,4-DIHYDRO-NAPHTHYRIDINE DERIVATIVES IN TREATMENT OF TUMORS” (NEURODAWN PHARMACEUTICAL CO., LTD., priority 2021, published 2025):

Columns and labels:
[1] = system: U251; experiment: Vacuolation phenotype by S2 (Example 2); assay type: cell-based, human; conditions: U251, 30 μM, 6 hours
Description: (§1) U87MG, T98G, U251, SK-N-SH, A-172 and HepG2 cells were adherently cultured in MEM+10% FBS+1% P/S medium and passaged at 1:3; CT26.WT cells were adherently cultured in RPMI-1640+10% FBS+1% P/S medium and passaged at 1:3; CHO-K1 was cultured adherently in Ham's F-12K+10% FBS+[…] medium and passaged at 1:3.
(§2) The cells used above were resuscitated and passaged twice stably. When the cell density reached above 85%, the cells were digested with 0.05% trypsin-EDTA for 3 minutes, resuspended with the culture medium, and plated into a 6-well plate at a certain density, with each well system being 2 mL. The cells were cultured for 24 hours, added with 2 μL of the above-prepared S2 solution (final DMSO concentration 0.1%) to each well according to the grouping, such that the S2 concentration in the cell culture system reached 30 μM.
After 6 hours of drug treatment, the plate was observed under a microscope with a 20× objective lens, and five fields of view were randomly selected for each well to take photos and record. If bright vacuoles with clear border appeared in the cell in the observed field of view, and at least one of the following conditions was met: 1) a cell contained at least one vacuole with a diameter greater than […]; 2) a cell contained 3 or more vacuoles with a diameter within the range of […], the cell was considered as a methuosis-positive cell (Journal of Medicinal Chemistry 2018 61 (12), 5424-5434).
CELLpositive: the number of methuosis-positive cells; CELLnormal: the number of cells with normal morphology

[2] = system: various tumor cells; experiment: Vacuolation by S2, summary over tumor cells (FIG. 2); assay type: cell-based
Description: as §1, §2
(§3) After 6 hours of drug treatment, the plate was observed under a microscope with a 20× objective lens, and five fields of view were randomly selected for each well to take photos and record. […]

[3] = system: A172; experiment: Cell viability assay (Example 2); assay type: cell-based; conditions: Homo sapiens, A 172; A172, 48 hours
Description: as §1
(§4) The above various cells were resuscitated and stably passaged twice. When the cell density reached above 85%, the cells were digested with 0.05% trypsin-EDTA for three minutes, resuspended, plated in a 96-well plate at the corresponding density, and cultured for 24 hours. The cells were treated with drugs at final concentrations of the culture system of 0.41 μM, 1.23 μM, 3.7 μM, 11.1 μM, 33.3 μM, and 100 μM. After 48 hours of drug treatment, cell viability was determined using CellCounting-Lite™ 2.0 kit. The plate was added with reagents at 100 µL/well according to the CellCounting-Lite™ 2.0 kit instructions, and shaken for 10 minutes. The luminescence value (LUM) was read on a multi-function plate reader, and the relative viability of the cells was calculated.
(§5) Relative viability of tumor cells V (%)=(LUM-LUMbackground)/(LUMnormal control−LUMbackground)×100%. LUMbackground was the background reading of the complete culture medium well added with the detection reagent. The half inhibitory concentration (IC50) was calculated using GraphPad Prism 8.0.1 statistical software.

[4] = system: U87MG; experiment: Cell viability assay (Example 2); assay type: cell-based; conditions: Homo sapiens, U-87 MG, 48 hours
Description: as §1, §4, §5

[5] = system: U251; experiment: Cell viability assay (Example 2); assay type: cell-based; conditions: Homo sapiens, U-251; U251, 48 hours
Description: as §1, §4, §5

[6] = system: T98G; experiment: Cell viability assay (Example 2); assay type: cell-based; conditions: Homo sapiens, 48 hours
Description: as §1, §4, §5

[7] = system: CT26.WT; experiment: Cell viability assay (Example 2); assay type: cell-based; conditions: Mus musculus, 48 hours
Description: as §1, §4, §5

[8] = system: HepG2; experiment: Cell viability assay (Example 2); assay type: cell-based; conditions: Homo sapiens; HepG2, 48 hours
Description: as §1, §4, §5

[9] = system: SK-N-SH; experiment: Cell viability assay (Example 2); assay type: cell-based; conditions: Homo sapiens, 48 hours
Description: as §1, §4, §5

[10] = system: CHO-K1; experiment: Vacuolation phenotype by S2 (Example 2); assay type: cell-based, hamster; conditions: non-tumor cell line CHO-K1, 30 μM, 6 hours
Description: as §1, §2, §3

[11] = system: CT26.WT; experiment: Vacuolation phenotype by S2 (Example 2); assay type: cell-based, mouse; conditions: 30 μM, 6 hours
Description: as §1, §2, §3

[12] = system: CHO-K1; experiment: Cell viability assay (Example 2); assay type: cell-based, hamster; conditions: non-tumor cell line CHO-K1, 48 hours
Description: as §1, §4, §5

[13] = system: U87MG-Luc glioblastoma cell in situ transplantation tumor; experiment: S2 in U87MG-Luc glioblastoma in situ transplantation tumor model in nude mice (Example 4); assay type: in vivo, BALB/c nude mice; conditions: for Overall survival period: vehicle 31; for Median survival period: vehicle 31.5
Description: Before the transplantation, the U87MG-Luc cells were digested with 0.05%-trypsin-EDTA, resuspended with pre-cooled PBS to 4×10^7 cells/mL, and transferred to ice for later use. The nude mice were anesthetized with isoflurane gas, and then fixed on a stereotaxic machine in a prone position. The scalp of the nude mouse was disinfected with iodophor, and incised sagittally with a scalpel. The incision was cleaned with iodophor. The skull was exposed, and drilled with a skull drill extending 1.0 mm in front of the bregma and deviating the right side 2.0 mm. 5 μL of cell suspension (2×10^5 cells) was manually injected with a 10 μL flat-head microsyringe, with inserting the needle to a depth of 3.5 mm, withdrawing the needle 0.5 mm, and injecting for about 10 minutes. After stopping the injection for 5 minutes, the needle was slowly removed, and the incision was sterilized and sutured. Finally 50,000 units of penicillin was injected intramuscularly to prevent infection.
On days 4, 12, 18, and 25 after the transplantation, 200 μL of 15 mg/mL D-luciferin potassium salt solution, which was filtered and sterilized through a 0.22 μm filter, was injected intraperitoneally. After 10 minutes, IVI chemiluminescence detection (bright field+bioluminescence imaging) was performed using the mouse in vivo imaging system (PE company IVIS Lumina XR). Luorescence intensity was analyzed using Living Image software to obtain fluorescence intensity [p/s], which reflected the size of tumor tissue in the brain of experimental animals.
The survival conditions of experimental animals were monitored, and the animals' death dates were recorded timely.
Quantitative data are expressed as mean±standard error. Each pharmacodynamic index was plotted using GraphPad Prism (8.0.1) software, differences between groups were tested by one-way ANOVA or two-way repeat ANOVA, followed by Fisher's LSD test, and survival analysis was performed by Kaplan-Meier. P<0.05 was defined as a significant difference.

Compound: CCOC(=O)C1=C(C)Nc2nc3c(c(N)c2C1c1ccccc1Cl)CC(C)(C)CC3 (stereo not shown) [Compound S2]
- Induction of vacuolation [1]: can induce vacuolation
- Induction of vacuolation (FIG. 2 legend) [2]: induced vacuolation
- IC50 [3]: 4.7 µM
- IC50 [4]: 11.7 µM
- IC50 [5]: 14.3 µM
- IC50 [6]: 9.4 µM
- IC50 [7]: 7.1 µM
- IC50 [8]: 10.1 µM
- IC50 [9]: 11.4 µM
- Induction of vacuolation [10]: could not induce vacuolation
- Induction of vacuolation [11]: can also induce vacuolation
- IC50 ([12]; CHO-K1, 48 h): > 100 µM
- IC50 [12]: ~100 µM
- Overall survival period ([13]; S2 0.25 mg/kg): 32 days
- Median survival period ([13]; S2 0.25 mg/kg): 32.5 days
- Survival rate vs vehicle (Log-rank, FIG. 8) ([13]; S2 0.5 mg/kg IV): significantly increased the survival rate
- Tumor growth after two weeks of administration vs vehicle (FIG. 7) ([13]; S2 0.5 mg/kg IV): significant inhibitory effect on tumor growth
- Growth of U87MG in situ tumors in the brain vs vehicle (growth curve, FIG. 6) ([13]; S2 0.5 mg/kg IV once a day for 15 days): significantly inhibit the growth
- Overall survival period ([13]; S2 0.5 mg/kg): 33 days
- Median survival period ([13]; S2 0.5 mg/kg): 33.5 days
- Survival rate vs vehicle (Log-rank, FIG. 8) ([13]; S2 1 mg/kg IV): significantly increased the survival rate
- Tumor growth after two weeks of administration vs vehicle (FIG. 7) ([13]; S2 1 mg/kg IV): significant inhibitory effect on tumor growth
- Growth of U87MG in situ tumors in the brain vs vehicle (growth curve, FIG. 6) ([13]; S2 1 mg/kg IV once a day for 15 days): significantly inhibit the growth
- Rank of inhibitory effect on tumor among S2 dose groups ([13]; S2 1 mg/kg IV, after two weeks): strongest inhibitory effect on tumor
- Overall survival period ([13]; S2 1 mg/kg): 36 days
- Median survival period ([13]; S2 1 mg/kg): 35 days
- Growth of U87MG glioma in the brain of nude mice (FIG. 7 legend) ([13]; administration of S2 for 2 weeks, dose not given in legend): inhibited the growth of U87MG glioma
- Survival period of nude mice with orthotopically transplanted brain glioma (FIG. 8 legend) ([13]; dose not given in legend): prolonged the survival period
